Experimental data taken from patent US4605744A, “Imidazole derivatives” (Hoffmann-La Roche Inc., priority 1985, dated 1986).
Where a name gives a salt, the structure may show the parent alone. Read-outs that look alike come from different tables or passages of the source.

What was measured:
Test in all cases: In vitro antibacterial activity (MIC)
Type in all cases: cell-based
C. diversus CDC 1663-72 = settings: Citrobacter koseri, CDC166372
Experimental: (§1) Drug dilutions are prepared in Mueller-Hinton broth ranging from 128 to 0.008 μg/ml. The diluted agents are dispensed in 100 μl amounts into the wells of a 96-well tray and used immediately or frozen at -10° to -70° C. until needed. Using an automated inoculator, 1.5 μl of a 10^-2 dilution of an overnight culture is added to each well of the tray. The tops of the trays are then sealed using transparent tape and incubated overnight at 37° C. The trays are examined with the aid of a viewer. The lowest concentration at which no growth is observed is considered to be the minimum inhibitory concentration (MIC).

C. freundii 8ASM = settings: Citrobacter freundii, 8ASM, C. freundii 8ASM; read-out: MIC
Experimental: as §1

C. freundii CDC6 = settings: Citrobacter freundii, CDC6
Experimental: as §1

E. aerogenes 503-478 = settings: Klebsiella aerogenes, 503478, E. aerogenes 503-478; read-out: MIC
Experimental: as §1

E. cloacae 214 = settings: Enterobacter cloacae, 214, E. cloacae 214; read-out: MIC
Experimental: as §1

E. cloacae 5699 = settings: Enterobacter cloacae, 5699, E. cloacae 5699; read-out: MIC
Experimental: as §1

E. cloacae 6951 = settings: Enterobacter cloacae, 6951, E. cloacae 6951; read-out: MIC
Experimental: as §1

E. cloacae 9295 = settings: Enterobacter cloacae, 9295, E. cloacae 9295; read-out: MIC
Experimental: as §1

E. cloacae 9570A = settings: Enterobacter cloacae, read-out: MIC
Experimental: as §1

E. cloacae P99 = settings: Enterobacter cloacae, P99, E. cloacae P99
Experimental: as §1

E. coli 48 = settings: Escherichia coli, 48
Experimental: as §1

E. coli 5152 = settings: Escherichia coli, 5152, E. coli 5152; read-out: MIC
Experimental: as §1

E. coli R-563 = settings: Escherichia coli, R563
Experimental: as §1

K. pneumoniae 35 = settings: Klebsiella pneumoniae; K. pneumoniae 35; read-out: MIC
Experimental: as §1

K. pneumoniae 503-964 = settings: Klebsiella pneumoniae, 503964; K. pneumoniae 503-964; read-out: MIC
Experimental: as §1

K. pneumoniae 503-994 = settings: Klebsiella pneumoniae, 503994, K. pneumoniae 503-994; read-out: MIC
Experimental: as §1

K. pneumoniae 5096 = settings: Klebsiella pneumoniae; K. pneumoniae 5096; read-out: MIC
Experimental: as §1

K. pneumoniae 8357 = settings: Klebsiella pneumoniae, 8357, K. pneumoniae 8357; read-out: MIC
Experimental: as §1

K. pneumoniae HE7 = settings: Klebsiella pneumoniae; K. pneumoniae HE7; read-out: MIC
Experimental: as §1

P. aeruginosa 503-56 = system: P. aeruginosa 503-56
Experimental: as §1

P. aeruginosa 5700 = settings: Pseudomonas aeruginosa, 5700, P. aeruginosa 5700; read-out: MIC
Experimental: as §1

P. aeruginosa 5712 = settings: Pseudomonas aeruginosa; P. aeruginosa 5712; read-out: MIC
Experimental: as §1

P. aeruginosa 6148B = settings: Pseudomonas aeruginosa, read-out: MIC
Experimental: as §1

P. aeruginosa B = settings: Pseudomonas aeruginosa, read-out: MIC
Experimental: as §1

P. aeruginosa POW 151 = settings: Pseudomonas aeruginosa, POW151
Experimental: as §1

P. aeruginosa Stone 130 = settings: Pseudomonas aeruginosa, STONE130, read-out: MIC
Experimental: as §1

P. mirabilis 2 = settings: Proteus mirabilis, 2, P. mirabilis 2; read-out: MIC
Experimental: as §1

P. rettgeri ATCC 9250 = settings: Providencia rettgeri, ATCC9250, P. rettgeri ATCC 9250; read-out: MIC
Experimental: as §1

P. vulgaris 100 = settings: Proteus vulgaris; P. vulgaris 100; read-out: MIC
Experimental: as §1

P. vulgaris ATCC 6380 = settings: Proteus vulgaris, ATCC6380, P. vulgaris ATCC 6380; read-out: MIC
Experimental: as §1

S. faecalis C1 = settings: Enterococcus faecalis; S. faecalis C1; read-out: MIC
Experimental: as §1

S. marcescens 5805 = settings: Serratia marcescens, 5805, S. marcescens 5805; read-out: MIC
Experimental: as §1

S. marcescens S147 = settings: Serratia marcescens; S. marcescens S147; read-out: MIC
Experimental: as §1

S. marcescens S2 = settings: Serratia marcescens; S. marcescens S2; read-out: MIC
Experimental: as §1

S. marcescens S3 = settings: Serratia marcescens; S. marcescens S3; read-out: MIC
Experimental: as §1

S. marcescens SM = settings: Serratia marcescens, read-out: MIC
Experimental: as §1

S. pneumoniae 6301 = settings: Streptococcus pneumoniae, 6301, S. pneumoniae 6301; read-out: MIC
Experimental: as §1

S. pneumoniae 6302 = settings: Streptococcus pneumoniae, 6302, S. pneumoniae 6302; read-out: MIC
Experimental: as §1

S. pneumoniae SC = settings: Streptococcus pneumoniae, read-out: MIC
Experimental: as §1

S. pyogenes 503-782 = settings: Streptococcus pyogenes, 503782; S. pyogenes 503-782; read-out: MIC
Experimental: as §1

S. typhi P58A = settings: Salmonella enterica, TYPHI
Experimental: as §1

Structure (SMILES): CC1(C)S[C@@H]2[C@H](N=CN3CCC(c4ncc[nH]4)CC3)C(=O)N2[C@H]1C(=O)O [O, [2S-(2alpha,5alpha,6beta)]-6-[[[4-(1H-imidazol-2-yl-1-piperidinyl]methylene]amino]-3,3-dimethyl-7-oxo-4-thia-1-azabicyclo[3.2.0]heptane-2-carboxylic acid hydrochloride trihydrate]
- MIC (C. diversus CDC 1663-72): 0.125 µg/mL
- MIC (C. freundii 8ASM): 0.062 µg/mL
- MIC (C. freundii CDC6): 0.125 µg/mL
- MIC (E. aerogenes 503-478): > 128 µg/mL
- MIC (E. cloacae 214): 0.5 µg/mL
- MIC (E. cloacae 5699): 0.5 µg/mL
- MIC (E. cloacae 6951): 16 µg/mL
- MIC (E. cloacae 9295): 1 µg/mL
- MIC (E. cloacae 9570A): 0.5 µg/mL
- MIC (E. cloacae P99): 0.062 µg/mL
- MIC (E. coli 48): 0.125 µg/mL
- MIC (E. coli 5152): 16 µg/mL
- MIC (E. coli R-563): 0.125 µg/mL
- MIC (K. pneumoniae 35): 1 µg/mL
- MIC (K. pneumoniae 503-964): 0.5 µg/mL
- MIC (K. pneumoniae 503-994): 0.5 µg/mL
- MIC (K. pneumoniae 5096): 64 µg/mL
- MIC (K. pneumoniae 8357): 0.5 µg/mL
- MIC (K. pneumoniae HE7): > 128 µg/mL
- MIC (P. aeruginosa 503-56; P. aeruginosa 503-56, hydrochloride trihydrate): > 128 µg/mL
- MIC (P. aeruginosa 503-56; Pseudomonas aeruginosa, 50356, P. aeruginosa 503-56, read-out: MIC): 128 µg/mL
- MIC (P. aeruginosa 5700): 0.5 µg/mL
- MIC (P. aeruginosa 5712): > 128 µg/mL
- MIC (P. aeruginosa 6148B): > 128 µg/mL
- MIC (P. aeruginosa B): 0.5 µg/mL
- MIC (P. aeruginosa POW 151): > 128 µg/mL
- MIC (P. aeruginosa Stone 130): > 128 µg/mL
- MIC (P. mirabilis 2): 1 µg/mL
- MIC (P. rettgeri ATCC 9250): 0.5 µg/mL
- MIC (P. vulgaris 100): 8 µg/mL
- MIC (P. vulgaris ATCC 6380): 0.25 µg/mL
- MIC (S. faecalis C1): 32 µg/mL
- MIC (S. marcescens 5805): 8 µg/mL
- MIC (S. marcescens S147): 0.25 µg/mL
- MIC (S. marcescens S2): 0.5 µg/mL
- MIC (S. marcescens S3): 0.25 µg/mL
- MIC (S. marcescens SM): 0.5 µg/mL
- MIC (S. pneumoniae 6301): 1 µg/mL
- MIC (S. pneumoniae 6302): 1 µg/mL
- MIC (S. pneumoniae SC): 1 µg/mL
- MIC (S. pyogenes 503-782): 32 µg/mL
- MIC (S. typhi P58A): 0.125 µg/mL
